Laboratory results from article PMC7076710, “Synthesis, Identification, and Structure–Activity Relationship Analysis of GATA4 and NKX2-5 Protein–Protein Interaction Modulators” (Journal of Medicinal Chemistry, 2019).

Experiments:
Format in all cases: cell-based
[1] = biological target: T1, NKX2-5 transcriptional activity (Mus musculus, UniProt P42582); assay: NKX2-5 luciferase reporter assay (3xNKE reporter, COS-1 cells); details: COS-1, luciferase reporter activity relative to control; for activity at 3 µM: read-out: NKX.3µM
T1 construct: expressed in transfected cells; host or cells: COS-1
T1 sequence (P42582 whole entry): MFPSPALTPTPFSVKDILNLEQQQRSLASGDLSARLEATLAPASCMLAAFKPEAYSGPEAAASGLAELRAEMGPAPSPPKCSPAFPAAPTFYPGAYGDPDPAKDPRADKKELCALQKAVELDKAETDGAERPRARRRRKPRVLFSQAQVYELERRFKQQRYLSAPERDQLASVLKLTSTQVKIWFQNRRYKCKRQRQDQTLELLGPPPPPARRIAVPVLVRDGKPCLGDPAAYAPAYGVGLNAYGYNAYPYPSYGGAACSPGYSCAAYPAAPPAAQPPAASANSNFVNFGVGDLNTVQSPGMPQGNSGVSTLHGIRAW
Method: (§1) To screen compounds for the GATA4–NKX2-5 interaction, we have developed a luciferase reporter assay based on their property to activate gene transcription synergistically through the NKX2-5 binding site on DNA.[28] In this assay, we transfected mammalian COS-1 cells with protein expression vectors for GATA4 and NKX2-5 proteins together with artificial luciferase reporter vector containing three high affinity binding sites for NKX2-5 (NKE). […] All 257 compounds were tested in two concentrations, 3 and 10 μM. Compounds either inhibited, enhanced, or had no effect on the GATA4–NKX2-5 transcriptional synergy. To investigate the selectivity of the active compounds, we tested their effects on NKX2-5 transcriptional activity by using the same luciferase reporter vector as in transcriptional synergy assay with three NKE sites (Figure 3B). Furthermore, we used GATA luciferase reporter assay to examine if compounds have an effect on GATA4 transcriptional activity. In this assay, we cotransfected the cells with a GATA4 protein expression vector and a reporter vector with tandem GATA4 binding sites (Figure 3C). Previously we have reported that compound 1 inhibited the GATA4–NKX2-5 transcriptional synergy at micromolar concentrations (IC50 = 3 μM).[29]
(§2) The plasmids expressing mouse GATA4 protein, pMT2-GATA4, and empty pMT2 were gifts from D. B. Wilson (Department of Pediatrics, St. Louis Children’s Hospital, St. Louis, MO).[44] The plasmids expressing mouse NKX2-5 protein, pMT2-NKX2-5, have been described earlier.[28] The luciferase reporter plasmid used in GATA4–NKX2-5 transcriptional synergy assay and NKX transcriptional assay, pGL3-3xHA, contains three high affinity binding sites for NKX2-5.[28] The luciferase reporter plasmid used in GATA transcriptional assay, NP-112, contains tandem GATA-sites and minimal promoter of rat brain natriuretic peptide (BNP) gene.[45] The pGL3-BNP luciferase reporter containing −534/+4 bp rat BNP proximal promoter described previously was used in hypertrophy assay.[46]
(§3) The primary screening assay of compounds’ effect on GATA4–NKX2-5 transcriptional synergy and COS-1 cell culturing has been described earlier.[33] […] (Kinnunen et al., unpublished observation). Briefly, COS-1 cells were seeded at 14 000 cells/well in Isoplate-96 microplates (PerkinElmer, Turku, Finland) and grown overnight. The cells were transfected with the luciferase reporter plasmid pGL3-3xHA 100 ng/well and equal amounts of expression plasmids pMT2-GATA4 and pMT2-NKX2-5 total 50 ng/well. To verify the synergistic effect, the cells were transfected with pMT2-GATA4 or pMT2-NKX2-5 25 ng/well, and the total DNA concentration was adjusted to 50 ng/well with empty pMT2 plasmid. In NKX2-5 and GATA4 luciferase reporter assays, the cells were transfected with reporter plasmid pGL3-3xHA or NP-112 (100 ng/well) and expression plasmid pMT2-NKX2-5 or pMT2-GATA4 (25 ng/well). The ratio of DNA/transfection reagent (Fugene 6, Promega) was 1:3 in all assays. The transfections were performed in serum and antibiotics free media for 6 h. The cells were treated with compounds or vehicle (0.1% DMSO) for 24 h, and the luminescence was measured using neolite Reporter Gene Assay System (PerkinElmer, Turku, Finland) and Victor2 plate reader (PerkinElmer, Turku, Finland).
(§4) Raw luciferase data were analyzed in Excel, and clear outliers were removed from triplicates by using the Grubb’s test. Data analysis was performed using R.[49] The luciferase data were first normalized on the basis of the combined mean value of controls. For data visualization and creation of figures, the following R packages were used: ggplot2, cowplot, RColorBrewer, and pheatmap. The heatmaps of the toxicity data were produced with GraphPad Prism 7.00 (GraphPad Software, La Jolla, CA). Statistical significance of luciferase reporter assay data was evaluated by randomized block analysis of variance followed by Dunnett’s post hoc test. […]

[2] = biological target: T2, GATA4 transcriptional activity (Mus musculus, UniProt Q08369); assay: GATA4 luciferase reporter assay (tandem GATA-site reporter, COS-1 cells); details: COS-1, luciferase reporter activity relative to control
T2 construct: expressed in transfected cells; host or cells: COS-1
T2 sequence (Q08369 whole entry): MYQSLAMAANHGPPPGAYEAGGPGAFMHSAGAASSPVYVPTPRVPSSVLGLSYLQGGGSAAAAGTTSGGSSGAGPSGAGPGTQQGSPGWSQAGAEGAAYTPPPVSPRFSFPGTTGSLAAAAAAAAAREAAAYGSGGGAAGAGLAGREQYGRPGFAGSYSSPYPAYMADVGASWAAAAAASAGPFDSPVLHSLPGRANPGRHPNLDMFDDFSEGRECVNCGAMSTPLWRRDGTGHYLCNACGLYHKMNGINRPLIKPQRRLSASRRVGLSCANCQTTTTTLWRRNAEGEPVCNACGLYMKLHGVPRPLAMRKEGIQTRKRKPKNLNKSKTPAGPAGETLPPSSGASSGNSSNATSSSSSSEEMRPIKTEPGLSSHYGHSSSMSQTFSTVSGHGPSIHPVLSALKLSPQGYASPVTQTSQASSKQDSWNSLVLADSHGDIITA
Method: as §1, §2, §3, §4

COS-1 cells [3] = assay: MTT assay (cell viability); details: for MTT.1µM / MTT.3µM / MTT.10µM / MTT.30µM: cell viability; for toxicity class in the MTT assay: 24-h exposure, classified at 10 μM
Text: (§5) To investigate the toxicity as a potential cause of decreased or increased activity in luciferase reporter gene assays, we tested a set of 40 active compounds in the COS-1 cell line used for the luciferase assays. Concentration-dependent toxic effects were investigated using the lactate dehydrogenase (LDH) assay to detect necrosis and the 3-(4,5-dimethylthiazol-2-yl)-2,5-diphenyltetrazolium bromide (MTT) assay as a measure of cell viability. […] For the data analysis, compounds were classified as toxic (Figures 5 and 7) if they induced a >10% decrease in cell viability in the MTT assay at the concentration of 10 μM. The most toxic compounds (35a, 35d, 54, 58, and 63–65) in the MTT assay all contained a phenyl substituent in the southern part ring, while the ortho-nitrophenyl-derivative 39g and the phenyl-substituted thiophene 47t were nontoxic. Higher flexibility in the central parts of the ethers (35a, 35d) and N-acylated amines (58, 64) might contribute to their toxicity, because less rigid compounds are more likely to have affinity to various biological targets. Such interactions can cause toxicity. To confirm and validate the results from MTT assays, we tested three nontoxic (2, 47s, and 72) and three toxic (1, 35a, and 58) compounds in a cell viability assay measuring intracellular ATP content.
(§6) Figure 5 Effects of selected compounds on COS-1 cell viability. (A) Compound-induced necrosis was quantified with the LDH assay after a 24-h compound exposure. The data are presented as cytotoxicity percentage (% of maximal LDH release). (B) Cell viability was analyzed with the MTT assay after a 24-h compound exposure. (A,B) The data are means from 2–3 independent experiments with 3 replicate wells in each and are presented as % of control (vehicle-treated cells). The compounds have been grouped on the basis of the structure of the central part: a, amide; b, ether; c, N-acylated amine; d, amine; and e, imine. (C) The effects of selected compounds on cell viability as determined by ATP content after a 24-h compound exposure. The data are mean + SEM from three independent experiments and are presented as % of vehicle-treated cells.
(§7) For toxicity screening, COS-1 cells were cultured in DMEM (Sigma-Aldrich, Steinheim, Germany) supplemented with 10% fetal bovine serum, 100 U/mL penicillin, and 100 μg/mL streptomycin (all from Gibco, Thermo Scientific) at 37 °C with 5% CO2. The cells were plated on 96-well plates at 10 000 cells/well and exposed to test compounds at a concentration range of 1–30 μM on the following day. After a 24-h compound treatment, lactate dehydrogenase (LDH) and 3-(4,5-dimethylthiazol-2-yl)-2,5-diphenyltetrazolium bromide (MTT) assays were carried out as described previously.[48] Briefly, LDH activity was determined from 50 μL samples of cell culture medium, to which 50 μL of substrate solution [1.3 mM β-nicotinamide-adenine dinucleotide, 660 μM iodonitrotetrazolium, 54 mM L(+)-lactic acid, and 280 μM phenazine methosulfate in 0.2 M Tris-HCl, pH 8.2, all from Sigma-Aldrich] was added, and the plate was incubated for 30 min at room temperature. The reaction was stopped with acetic acid (final concentration 333 mM), and absorbance was measured at 490 nm. The absorbance values of the samples were normalized to maximal LDH release and spontaneous LDH release determined on the same plate. Mitochondrial metabolic activity was quantified by incubating the cells with 0.5 mg/mL MTT (from Sigma-Aldrich) for 2 h at 37 °C with 5% CO2, whereafter culture medium was removed and formazan crystals were dissolved in DMSO. The absorbance was measured at 550 nm, and absorbance at 650 nm was subtracted as background.

[4] = biological target: T3, GATA4–NKX2-5 transcriptional synergy (Mus musculus, UniProt P42582+Q08369); assay: GATA4–NKX2-5 transcriptional synergy luciferase reporter assay (3xNKE reporter, COS-1 cells); details: COS-1, luciferase reporter activity relative to control
T3 construct: expressed in transfected cells; host or cells: COS-1
T3 sequence (Q08369 whole entry): as above
T3 sequence (P42582 whole entry): as the sequence (P42582 whole entry) above

COS-1 cells [5] = assay: LDH assay (necrosis)
Text: as §5, §6, §7

Row | Structure (SMILES) | activity at 3 µM [1] | activity at 3 µM [2] | MTT.1µM (COS-1 cells [3]) | MTT.3µM (COS-1 cells [3]) | MTT.10µM (COS-1 cells [3]) | MTT.30µM (COS-1 cells [3]) | activity at 3 µM [4] | LDH.1µM (COS-1 cells [5]) | LDH.3µM (COS-1 cells [5]) | LDH.10µM (COS-1 cells [5]) | LDH.30µM (COS-1 cells [5]) | toxicity class in the MTT assay (COS-1 cells [3]) | activity at 10 µM ([1]; 10 µM, read-out: NKX.10µM) | activity at 10 µM ([2]; 10 µM) | activity at 10 µM ([4]; 10 µM)
1 | C=CCN(Cc1ccc(N(CC)CC)cc1)c1c(-c2ccccc2)noc1C [Compound 30b] | 97.2% | 82.8% | 104.18 | 97.12 | 96.41 | 84.34 | 84.5% | -1.6 | -0.27 | 1.75 | 3.61 |  |  |  | 
2 | CCN(CC)c1ccc(NC(=O)c2csc(C)c2-c2ccccc2)cc1 [Compound 47t] | 55.2% | 74.4% | 106.87 | 104.76 | 104.28 | 99.24 | 61.5% | 0.5 | 1.08 | 0.5 | 2.38 | nontoxic (nontoxic compounds (cell viability >90%)) |  |  | 
3 | CC(=O)COC(=O)c1ccc(OCc2c(-c3ccccc3)noc2C)cc1 [Compound 35d] | 56.8% | 65.3% | 81.99 | 73.26 | 64.91 | 61.12 | 51.3% | -0.61 | -0.5 | -0.15 | -0.05 | most toxic |  |  | 
4 | CN(C)c1ccc(NCc2c[nH]nc2-c2ccc(F)cc2)cc1 [SI78] | 70.7% | 83.7% | 105.6 | 102.53 | 103.53 | 103.47 | 67.2% | 0.7 | 1 | -1.06 | -2.54 |  | 43% | 49.1% | 42.2%
5 | CCN(CC)c1ccc(NC(=O)c2snnc2-c2ccccc2)cc1 [Compound 47n] | 71.1% | 92.4% | 104.04 | 91.5 | 90.69 | 79.72 |  | 1.44 | 1.32 | 0.75 | 1.71 |  |  |  | 
